#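 Test compounds were applied to cells in 96-well plates for 48 hours at 5 doses. At the GI50, growth is halved. The concentration for full growth arrest is given as TGI.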
# Experiments:
# Assay in all cases: DTP human tumour cell line panel, 48 h
# 786-0 renal = test system: 786-0 renal
# A498 renal = test system: A498 renal
# A549 NSCLC = test system: A549 NSCLC
# ACHN renal = test system: ACHN renal
# BT-549 breast = test system: BT-549 breast
# CAKI-1 renal = test system: CAKI-1 renal
# CCRF-CEM leukemia = test system: CCRF-CEM leukemia
# COLO 205 colon = test system: COLO 205 colon
# DU-145 prostate = test system: DU-145 prostate
# EKVX NSCLC = test system: EKVX NSCLC
# HCC-2998 colon = test system: HCC-2998 colon
# HCT-116 colon = test system: HCT-116 colon
# HCT-15 colon = test system: HCT-15 colon
# HL-60(TB) leukemia = test system: HL-60(TB) leukemia
# HOP-62 NSCLC = test system: HOP-62 NSCLC
# HOP-92 NSCLC = test system: HOP-92 NSCLC
# HS 578T breast = test system: HS 578T breast
# HT29 colon = test system: HT29 colon
# IGROV1 ovarian = test system: IGROV1 ovarian
# K-562 leukemia = test system: K-562 leukemia
# KM12 colon = test system: KM12 colon
# LOX IMVI melanoma = test system: LOX IMVI melanoma
# M14 melanoma = test system: M14 melanoma
# MALME-3M melanoma = test system: MALME-3M melanoma
# MCF7 breast = test system: MCF7 breast
# MDA-MB-231 breast = test system: MDA-MB-231 breast
# MDA-MB-435 = test system: MDA-MB-435
# MDA-N = test system: MDA-N
# MOLT-4 leukemia = test system: MOLT-4 leukemia
# NCI-H226 lung = test system: NCI-H226 lung
# NCI-H23 lung = test system: NCI-H23 lung
# NCI-H460 lung = test system: NCI-H460 lung
# NCI-H522 lung = test system: NCI-H522 lung
# NCI/ADR-RES ovarian = test system: NCI/ADR-RES ovarian
# OVCAR-3 ovarian = test system: OVCAR-3 ovarian
# OVCAR-4 ovarian = test system: OVCAR-4 ovarian
# OVCAR-5 ovarian = test system: OVCAR-5 ovarian
# OVCAR-8 ovarian = test system: OVCAR-8 ovarian
# PC-3 prostate = test system: PC-3 prostate
# RPMI-8226 leukemia = test system: RPMI-8226 leukemia
# RXF 393 renal = test system: RXF 393 renal
# SF-268 CNS = test system: SF-268 CNS
# SF-295 CNS = test system: SF-295 CNS
# SF-539 CNS = test system: SF-539 CNS
# SK-MEL-2 melanoma = test system: SK-MEL-2 melanoma
# SK-MEL-28 melanoma = test system: SK-MEL-28 melanoma
# SK-MEL-5 melanoma = test system: SK-MEL-5 melanoma
# SK-OV-3 ovarian = test system: SK-OV-3 ovarian
# SN12C renal = test system: SN12C renal
# SNB-19 CNS = test system: SNB-19 CNS
# SNB-75 CNS = test system: SNB-75 CNS
# SR leukemia = test system: SR leukemia
# SW-620 colon = test system: SW-620 colon
# T-47D breast = test system: T-47D breast
# TK-10 renal = test system: TK-10 renal
# U251 CNS = test system: U251 CNS
# UACC-257 melanoma = test system: UACC-257 melanoma
# UACC-62 melanoma = test system: UACC-62 melanoma
# UO-31 renal = test system: UO-31 renal
# DMS 114 small cell lung = test system: DMS 114 small cell lung
# DMS 273 small cell lung = test system: DMS 273 small cell lung
# M19-MEL melanoma = test system: M19-MEL melanoma
# SNB-78 CNS = test system: SNB-78 CNS
# DLD-1 colon = test system: DLD-1 colon
# HOP-18 NSCLC = test system: HOP-18 NSCLC
# LXFL 529 NSCLC = test system: LXFL 529 NSCLC
smiles,measurement,setting,value
Oc1ccc(SCc2cc(O)ccc2O)cc1,TGI,786-0 renal,36.4 µM
same,TGI,A498 renal,> 89.4 µM
same,TGI,A549 NSCLC,> 100 µM
same,TGI,ACHN renal,26.8 µM
same,TGI,BT-549 breast,16.5 µM
same,TGI,CAKI-1 renal,19.7 µM
same,TGI,CCRF-CEM leukemia,> 100 µM
same,TGI,COLO 205 colon,38.8 µM
same,TGI,DU-145 prostate,> 100 µM
same,TGI,EKVX NSCLC,41.7 µM
same,TGI,HCC-2998 colon,> 68.9 µM
same,TGI,HCT-116 colon,26.1 µM
same,TGI,HCT-15 colon,30.8 µM
same,TGI,HL-60(TB) leukemia,> 100 µM
same,TGI,HOP-62 NSCLC,43.7 µM
same,TGI,HOP-92 NSCLC,> 47.2 µM
same,TGI,HS 578T breast,97 µM
same,TGI,HT29 colon,> 100 µM
same,TGI,IGROV1 ovarian,25.6 µM
same,TGI,K-562 leukemia,> 100 µM
same,TGI,KM12 colon,46.9 µM
same,TGI,LOX IMVI melanoma,> 53.1 µM
same,TGI,M14 melanoma,33.7 µM
same,TGI,MALME-3M melanoma,36.2 µM
same,TGI,MCF7 breast,27.4 µM
same,TGI,MDA-MB-231 breast,36.4 µM
same,TGI,MDA-MB-435,27.1 µM
same,TGI,MDA-N,28.6 µM
same,TGI,MOLT-4 leukemia,> 52.9 µM
same,TGI,NCI-H226 lung,35.5 µM
same,TGI,NCI-H23 lung,> 100 µM
same,TGI,NCI-H460 lung,> 86.7 µM
same,TGI,NCI-H522 lung,4.88 µM
same,TGI,NCI/ADR-RES ovarian,> 57.5 µM
same,TGI,OVCAR-3 ovarian,22.4 µM
same,TGI,OVCAR-4 ovarian,18.5 µM
same,TGI,OVCAR-5 ovarian,49.5 µM
same,TGI,OVCAR-8 ovarian,41.9 µM
same,TGI,PC-3 prostate,> 52.7 µM
same,TGI,RPMI-8226 leukemia,> 100 µM
same,TGI,RXF 393 renal,25.5 µM
same,TGI,SF-268 CNS,> 62.7 µM
same,TGI,SF-295 CNS,39 µM
same,TGI,SF-539 CNS,12.4 µM
same,TGI,SK-MEL-2 melanoma,39.2 µM
same,TGI,SK-MEL-28 melanoma,46.7 µM
same,TGI,SK-MEL-5 melanoma,22.5 µM
same,TGI,SK-OV-3 ovarian,> 96.7 µM
same,TGI,SN12C renal,28.1 µM
same,TGI,SNB-19 CNS,> 80.2 µM
same,TGI,SNB-75 CNS,> 65.9 µM
same,TGI,SR leukemia,> 100 µM
same,TGI,SW-620 colon,> 62.8 µM
same,TGI,T-47D breast,30.5 µM
same,TGI,TK-10 renal,33.9 µM
same,TGI,U251 CNS,28.4 µM
same,TGI,UACC-257 melanoma,> 50.3 µM
same,TGI,UACC-62 melanoma,53.2 µM
same,TGI,UO-31 renal,20.7 µM
COc1ccc(OC)c2c(=O)c3ccccc3[nH]c12,TGI,A498 renal,> 100 µM
same,TGI,A549 NSCLC,> 100 µM
same,TGI,CCRF-CEM leukemia,> 100 µM
same,TGI,DMS 114 small cell lung,> 100 µM
same,TGI,DMS 273 small cell lung,> 100 µM
same,TGI,EKVX NSCLC,> 100 µM
same,TGI,HCT-116 colon,> 100 µM
same,TGI,HL-60(TB) leukemia,> 100 µM
same,TGI,HOP-62 NSCLC,> 100 µM
same,TGI,HOP-92 NSCLC,> 100 µM
same,TGI,HT29 colon,> 100 µM
same,TGI,IGROV1 ovarian,> 100 µM
same,TGI,KM12 colon,> 100 µM
same,TGI,M14 melanoma,> 100 µM
same,TGI,M19-MEL melanoma,> 100 µM
same,TGI,MOLT-4 leukemia,> 100 µM
same,TGI,NCI-H226 lung,94.1 µM
same,TGI,NCI-H23 lung,> 100 µM
same,TGI,NCI-H460 lung,> 100 µM
same,TGI,NCI-H522 lung,> 100 µM
same,TGI,OVCAR-5 ovarian,> 100 µM
same,TGI,OVCAR-8 ovarian,> 100 µM
same,TGI,RXF 393 renal,> 100 µM
same,TGI,SF-268 CNS,> 100 µM
same,TGI,SK-MEL-28 melanoma,> 100 µM
same,TGI,SK-OV-3 ovarian,> 100 µM
same,TGI,SNB-19 CNS,> 100 µM
same,TGI,SNB-78 CNS,> 100 µM
same,TGI,SR leukemia,> 100 µM
same,TGI,TK-10 renal,> 100 µM
same,TGI,U251 CNS,> 100 µM
same,TGI,UACC-257 melanoma,> 100 µM
same,TGI,UACC-62 melanoma,> 100 µM
same,TGI,UO-31 renal,> 100 µM
CC(=O)[O-].[Mn+3].[O-]c1ccc(Cl)cc1C=NCCN=Cc1cc(Cl)ccc1[O-],GI50,786-0 renal,> 100 µM
same,TGI,786-0 renal,> 100 µM
same,GI50,A498 renal,> 100 µM
same,TGI,A498 renal,> 100 µM
same,GI50,A549 NSCLC,> 100 µM
same,TGI,A549 NSCLC,> 100 µM
same,GI50,ACHN renal,> 100 µM
same,TGI,ACHN renal,> 100 µM
same,GI50,CCRF-CEM leukemia,22.2 µM
same,TGI,CCRF-CEM leukemia,> 100 µM
same,GI50,DLD-1 colon,36.9 µM
same,TGI,DLD-1 colon,> 100 µM
same,GI50,DMS 114 small cell lung,> 100 µM
same,TGI,DMS 114 small cell lung,> 100 µM
same,GI50,DMS 273 small cell lung,> 100 µM
same,TGI,DMS 273 small cell lung,> 100 µM
same,GI50,HCC-2998 colon,66.3 µM
same,TGI,HCC-2998 colon,> 100 µM
same,GI50,HCT-116 colon,> 100 µM
same,TGI,HCT-116 colon,> 100 µM
same,GI50,HCT-15 colon,> 100 µM
same,TGI,HCT-15 colon,> 100 µM
same,GI50,HL-60(TB) leukemia,50.7 µM
same,TGI,HL-60(TB) leukemia,> 100 µM
same,GI50,HOP-18 NSCLC,51.9 µM
same,TGI,HOP-18 NSCLC,> 100 µM
same,GI50,HT29 colon,> 100 µM
same,TGI,HT29 colon,> 100 µM
same,GI50,IGROV1 ovarian,7.99 µM
same,TGI,IGROV1 ovarian,54.6 µM
same,GI50,K-562 leukemia,> 100 µM
same,TGI,K-562 leukemia,> 100 µM
same,GI50,KM12 colon,> 100 µM
same,TGI,KM12 colon,> 100 µM
same,GI50,LOX IMVI melanoma,38.6 µM
same,TGI,LOX IMVI melanoma,> 100 µM
same,GI50,LXFL 529 NSCLC,> 100 µM
same,TGI,LXFL 529 NSCLC,> 100 µM
same,GI50,M14 melanoma,71.6 µM
same,TGI,M14 melanoma,> 100 µM
same,GI50,M19-MEL melanoma,> 100 µM
same,TGI,M19-MEL melanoma,> 100 µM
same,GI50,MALME-3M melanoma,34.7 µM
same,TGI,MALME-3M melanoma,> 100 µM
same,GI50,MOLT-4 leukemia,> 100 µM
same,TGI,MOLT-4 leukemia,> 100 µM
same,GI50,NCI-H226 lung,> 100 µM
same,TGI,NCI-H226 lung,> 100 µM
same,GI50,NCI-H23 lung,> 100 µM
same,TGI,NCI-H23 lung,> 100 µM
same,GI50,NCI-H460 lung,> 100 µM
same,TGI,NCI-H460 lung,> 100 µM
same,GI50,NCI-H522 lung,> 100 µM
same,TGI,NCI-H522 lung,> 100 µM
same,GI50,OVCAR-3 ovarian,37.6 µM
same,TGI,OVCAR-3 ovarian,> 100 µM
same,GI50,OVCAR-4 ovarian,> 100 µM
same,TGI,OVCAR-4 ovarian,> 100 µM
same,GI50,OVCAR-8 ovarian,> 100 µM
same,TGI,OVCAR-8 ovarian,> 100 µM
same,GI50,SF-268 CNS,> 100 µM
same,TGI,SF-268 CNS,> 100 µM
same,GI50,SF-295 CNS,> 100 µM
same,TGI,SF-295 CNS,> 100 µM
same,GI50,SF-539 CNS,36 µM
same,TGI,SF-539 CNS,74.3 µM
same,GI50,SK-MEL-2 melanoma,> 100 µM
same,TGI,SK-MEL-2 melanoma,> 100 µM
same,GI50,SK-MEL-28 melanoma,> 100 µM
same,TGI,SK-MEL-28 melanoma,> 100 µM
same,GI50,SK-MEL-5 melanoma,88.5 µM
same,TGI,SK-MEL-5 melanoma,> 100 µM
same,GI50,SK-OV-3 ovarian,> 100 µM
same,TGI,SK-OV-3 ovarian,> 100 µM
same,GI50,SN12C renal,> 100 µM
same,TGI,SN12C renal,> 100 µM
same,GI50,SNB-19 CNS,> 100 µM
same,TGI,SNB-19 CNS,> 100 µM
same,GI50,SNB-75 CNS,> 100 µM
same,TGI,SNB-75 CNS,> 100 µM
same,GI50,SNB-78 CNS,> 100 µM
same,TGI,SNB-78 CNS,> 100 µM
same,GI50,TK-10 renal,> 100 µM
same,TGI,TK-10 renal,> 100 µM
same,GI50,U251 CNS,> 100 µM
same,TGI,U251 CNS,> 100 µM
same,GI50,UACC-257 melanoma,> 100 µM
same,TGI,UACC-257 melanoma,> 100 µM
same,GI50,UACC-62 melanoma,> 100 µM
same,TGI,UACC-62 melanoma,> 100 µM
same,GI50,UO-31 renal,> 100 µM
same,TGI,UO-31 renal,> 100 µM

# — PubChem BioAssay (NCI)
